pIC50: −log10 of the molar value.
Columns and labels:
CXCR6 [1] = target: T1, CXCR6 (Homo sapiens, UniProt O00574); test: CXCR6-dependent cAMP assay (Lance Ultra, PerkinElmer); type: cell-based; details: CXCR6-expressing cells, forskolin + CXCL16; Table B-1
Procedure: (§1) Compounds of Formula (I), (Ia), (Ib), (Ic), (Id), and (II) are tested for their ability to inhibit β-arrestin recruitment in CXCR6-expressing CHO-K1 cells using the β-galactosidase PathHunter Enzyme Complementation Platform from DiscoveRx. A detailed protocol for this assay is available on PubChem (AIDs 624129). Accordingly, 800 CHO-K1 cells expressing CXCR6 (DiscoveRx, Cat #93-0205C2) are seeded into the wells of a white opaque 1536-well plate, centrifuged, and incubated overnight at 37° C., 5% CO2. The next day, compounds of Formula (I), (Ia), (Ib), (Ic), (Id), and (II) and controls (CXCL16 (10 nM) or DMSO) are dispensed into wells and incubated for 1.5 h. The assay is terminated upon addition of lysis buffer, detection substrate, and enzyme. Luminescence is read on the Envision plate reader 1 h post-termination. All compounds are tested in a 10 pt dose-response curve in duplicate. Compounds will also be tested in a CXCR6-dependent cAMP assay using the Lance Ultra assay from PerkinElmer. Accordingly, 2 uL CXCR6-expressing cells are suspended in assay media (OptiMEM; 2% FBS; 1×P/S) and plated at 500 cells/well in 1536-well, white, TC plates and grown overnight at 37° C.; 5% CO2. 40 nL test compounds of Formula (I), (Ia), (Ib), (Ic), (Id), and (II) are added to cells using ECHO dispenser. 2 uL of 2.5 mM forskolin in stimulation buffer (HBSS; 5 mM HEPES; 0.1% BSA; 0.1 mM RO-20-1724) with or without 20 nM CXCL16 is transferred to wells using BioRAPTR. Wells treated with forskolin and CXCL16 serve as negative controls and wells treated with forskolin only serve as positive controls. Cells are incubated at room temperature for 30 min followed by addition of 2 uL each EU-cAMP tracer and ULight anti-cAMP Ab in detection buffer according to manufacturer's instruction. After 30 min at room temperature, TR-FRET is read using EnVision plate reader.

CXCR6 [2] = target: T1, CXCR6; test: β-arrestin recruitment inhibition in CXCR6-expressing CHO-K1 cells (PathHunter, DiscoveRx); type: cell-based
Procedure: as §1

[3] = system: SK-Hep-1 cancer xenograft; test: SK-Hep-1 cancer xenograft tumor growth; type: in vivo; details: compared to control; FIG. 1 legend
[4] = CXCR6-expressing CHO-K1 cells, Table B-1, read-out: IC50 (β-arrestin)

T1 sequence (O00574 whole entry): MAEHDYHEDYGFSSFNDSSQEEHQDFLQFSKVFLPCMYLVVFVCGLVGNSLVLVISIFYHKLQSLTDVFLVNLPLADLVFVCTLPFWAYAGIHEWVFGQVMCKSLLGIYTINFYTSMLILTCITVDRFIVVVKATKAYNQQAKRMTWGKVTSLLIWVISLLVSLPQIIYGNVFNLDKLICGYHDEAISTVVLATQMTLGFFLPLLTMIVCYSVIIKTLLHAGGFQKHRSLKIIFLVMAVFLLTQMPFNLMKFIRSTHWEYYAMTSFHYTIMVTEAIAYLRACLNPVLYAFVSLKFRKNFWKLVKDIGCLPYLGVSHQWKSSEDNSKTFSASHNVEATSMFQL

| Structure (SMILES) | pIC50 (CXCR6 [1]) | pIC50 (CXCR6 [2]; [4]) | pIC50 (CXCR6 [2]) | further results |
| --- | --- | --- | --- | --- |
| COc1cc(C(=O)N[C@@H]2C[C@H]3CCC[C@@H](C2)N3CC(=O)Nc2ccccc2Cl)cc(OC)c1OC [N-((1R,3s,5S)-9-(2-((2-chlorophenyl)amino)-2-oxoethyl)-9-azabicyclo[3.3.1]nonan-3-yl)-3,4,5-trimethoxybenzamide] | 5.30 to 5.70 | 5.70 to 7.00 |  |  |
| COc1cc(C(=O)N[C@@H]2C[C@H]3CCC[C@@H](C2)N3Cc2nc3c(Cl)c(Cl)ccc3s2)cc(OC)c1OC [N-((1R,3s,5S)-9-((4,5-dichlorobenzo[d]thiazol-2-yl)methyl)-9-azabicyclo[3.3.1]nonan-3-yl)-3,4,5-trimethoxybenzamide] |  |  | > 7.00 |  |
| COc1cc(C(=O)N[C@@H]2C[C@H]3CCC[C@@H](C2)N3Cc2cc3ccccc3s2)cc(OC)c1OC [N-((1R,3s,5S)-9-(benzo[b]thiophen-2-ylmethyl)-9-azabicyclo[3.3.1]nonan-3-yl)-3,4,5-trimethoxybenzamide] | 4.70 to 5.30 | 5.70 to 7.00 |  |  |
| CCC(C)Oc1ccc(C(=O)N[C@@H]2C[C@H]3CCC[C@@H](C2)N3Cc2nc3c(C(F)(F)F)cccc3s2)cc1OC (stereo partly drawn) [4-(sec-butoxy)-3-methoxy-N-((1R,3s,5S)-9-((4-(trifluoromethyl)benzo[d]thiazol-2-yl)methyl)-9-azabicyclo[3.3.1]nonan-3-yl)benzamide] |  | > 7.00 |  |  |
| COc1cc(C(=O)N[C@@H]2C[C@H]3CCC[C@@H](C2)N3Cc2nc3c(Cl)cccc3s2)cc(OC)c1OC [N-((1R,3s,5S)-9-((4-chlorobenzo[d]thiazol-2-yl)methyl)-9-azabicyclo[3.3.1]nonan-3-yl)-3,4,5-trimethoxybenzamide] | 5.70 to 7.00 | 5.70 to 7.00 |  |  |
| COc1cc(C(=O)N2C[C@H]3CCC[C@@H](C2)N3Cc2nc3c(C(F)(F)F)cccc3s2)cc(OC)c1OC [((1R,5S)-9-((4-(trifluoromethyl)benzo[d]thiazol-2-yl)methyl)-3,9-diazabicyclo[3.3.1]nonan-3-yl)(3,4,5-trimethoxyphenyl)methanone] |  |  | 5.70 to 7.00 |  |
| O=P1(N(CCCl)CCCl)NCCCO1 (stereo not drawn) [cyclophosphamide] |  |  |  | tumor growth, SK-Hep-1 cancer xenograft [3]: tumor growth reduction |
| COc1cc(C(=O)N[C@@H]2C[C@H]3CCC[C@@H](C2)N3Cc2nc3c(C(F)(F)F)cccc3s2)cc(OC)c1OC [Compound 1, 3,4,5-trimethoxy-N-((1R,3s,5S)-9-((4-(trifluoromethyl)benzo[d]thiazol-2-yl)methyl)-9-azabicyclo[3.3.1]nonan-3-yl)benzamide] |  |  | > 7.00 |  |
| COc1cc(C(=O)N[C@@H]2C[C@H]3CCC[C@@H](C2)N3Cc2nc3c(C(F)(F)F)cccc3s2)ccc1OC(C)C [4-isopropoxy-3-methoxy-N-((1R,3s,5S)-9-((4-(trifluoromethyl)benzo[d]thiazol-2-yl)methyl)-9-azabicyclo[3.3.1]nonan-3-yl)benzamide] |  |  | 5.70 to 7.00 |  |
